Measurements reported in US20090181904A1, “METHOD FOR REGULATING NUTRIENT ABSORPTION WITH GINSENOSIDES” (priority 2005, published 2009).

Key:
Type in all cases: cell-based, human
Caco2 cell monolayer = test: Glucose absorption assay (transport across Caco2 monolayer in transwell, 14C-glucose); conditions: for Transport rate (glucose): 2 days pretreatment, 25 mM glucose
Description: For glucose absorption assay, 0.3 mL (10^5 cell/ml) of Caco2 cells were seeded into the apical chamber of each transwell and the basolateral chamber was added with 1 ml of culture medium (as indicated above). Costar transwell inserts (No. 3414, Corning Incorporated, NY, USA) separate each well in 24-well plates into an apical chamber (defined as a chamber above the insert) and a basolateral chamber (defined as a chamber below the insert). The culture medium in each transwell was changed every 2 days in both of the apical and basolateral chambers. To ensure the integrity of tight junction of Caco2 monolayer membrane formed in the transwell, a Trans-Epithelial Electrical Resistance (TEER) assay was conducted using Millicell®-ERS (Millipore EVOM-6; World Precision Instrument, Sarasota, Fla., USA) to measure the TEER between apical and basolateral chambers of the transwell. As the measured TEER reached 300 to 450 Ωcm^2 with the presence of differentiated brush border on the […] side of the cell on the 14th to 21st day of the culture, the Caco2 monolayer was ready for the glucose absorption test. The TEER values were taken before, during, and after each experiment to justify consistency of the data collected.
Glucose absorption was initiated by replacing the culture medium in the basolateral chamber with fresh glucose absorption buffer and the culture medium in the apical chamber with 0.2 mL of the glucose absorption buffer containing 2 μCi/ml of radioactive D-[^14C]-glucose (60 Ci/mmol, American Radiolabeled Chemicals, ARC, St. Louis, Mo., USA) and unlabeled cold glucose to give glucose at a final concentration of 25 mM. A series of five 10-μL samples were taken from the basolateral chamber at every 5 or 10 minute intervals. In order to maintain the constant buffer volume, same amount of sample buffer were added back to the basolateral chamber after withdrawn of each sample. The samples were transferred to the filter-bottomed UniFilter plates (Perkin-Elmer, Wellesley, Mass., USA) and dried in a vacuum oven at 37° C. The bottom of the UniFilter plate was sealed and 25 μL of the counting solution were added into each well. Adhesive plate sealers were used in place of the lids and radioactivity of each sample was counted using the microplate liquid scintillation counter (TopCount, Packard NXT, Packard BioScience Company, Meriden, Conn., USA). The effect of test compounds on glucose absorption was expressed as the nmoles of glucose accumulated in the basolateral chamber with respect to time in minutes (nmol/min). The glucose absorption rate was obtained by calculating the slope of the straight line from the time zero to the end point of the graphic data of each figure.

Caco-2 cell monolayer [1] = test: Arginine absorption assay (transport across Caco-2 monolayer, 3H-arginine); conditions: for Transport rate (arginine): 10 mM L-arginine
Description: (§1) In measuring transport of arginine across the Caco-2 cell monolayer, both sides of the transwells were washed with arginine incubation buffer consisting of: 137 mM NaCl, 10 mM Hepes, 0.3 mM NaH2PO4, 0.3 mM K2HPO4, 5.4 mM KCl, 2.8 mM CaCl2, 1 mM MgSO4, 10 mM glucose, adjusted to pH 7.4. Then, the cell layer was pre-incubated in the incubation buffer at 37° C. for 1 h. The volumes of incubation buffer were 0.2 mL and 0.9 mL in the apical and basolateral chambers, respectively. The cells were replaced with fresh incubation medium in both chambers prior to the transport experiment. The transport experiment was initiated by replacing the incubation solution on the apical side with solution containing 10 mM of L-arginine in which 0.125 μCi/mL of L-[^3H]-arginine was included. At designated time intervals, 10 μL-solution samples were removed from the basolateral side and radioactivity of each sample was counted using a microplate liquid scintillation counter (TopCount, Packard NXT). During the experiment, when a 10 μL-solution sample was removed from the basolateral side every time, 10 μL buffer was supplemented to keep the volume constant. The uptake of [^3H]-mannitol was used to correct for nonspecific transport of molecules across the monolayer membrane. Results were expressed as the nanomoles of arginine transport across the Caco-2 cell monolayers with respect to time in minutes (nmol/min).

Caco2 cells = test: Cell viability assay (CCK-8); conditions: 10 μM and 50 μM, culture medium containing 1% FBS, 5 days
Description: In order to investigate whether the purified ginsenosides were toxic to the Caco2 cells, a cell viability assay was carried out using culture medium supplemented with 1% and 10% FBS, respectively. The cells were seeded at a concentration of 5000 cells/well in a 96-well plate. To eliminate the boundary effect of the cell growth, the cells were only seeded in 60 wells of the middle area of the plate, whereas 36 wells at the surrounding area of the plate were filled only with 100 μL of PBS. Once the cells were attached to the plate, the cells were incubated in medium containing the purified ginsenosides at various concentrations (0, 0.1, 1, 10 and 50 μM). […]
The cell viability was determined by a Cell Counting Kit-8 (CCK-8, Dojindo Laboratories, Kumamoto, Japan) assay that was based on redox reaction of NADH in the living cells with cell proliferation reagent WST-8. […] Therefore, a greater light absorbance detected by ELISA reader at wavelength of 450 nm indicated presence of a larger number of the living cells.
The CCK-8 assay was carried out by adding 10 μL of the CCK-8 reagent in each well of a 96-format plate. The plate was then covered with aluminum foil and further incubated for two hours before measuring for absorbance at wavelengths of 450 nm using an ELISA reader.

Caco-2 cell monolayer [2] = test: Tryptophan absorption assay (transport across Caco-2 monolayer)
Description: as §1
The experimental procedures similar to those in Example 2 were used for measuring the uptake of tryptophan molecules across the Caco-2 membrane, except using a tryptophan incubation buffer consisting of 137 mM choline chloride, 10 mM Hepes, 0.6 mM KH2PO4, 5.4 mM KCl, 2.8 mM CaCl2, 1 mM MgSO4, and 10 mM glucose, and having its pH adjusted to 7.4. Results were expressed as the nanomoles of tryptophan transport across the Caco-2 cell monolayers with respect to time in minutes (nmol/min).

Structure (SMILES): CC(C)=CCC[C@](C)(O[C@@H]1O[C@H](CO)[C@@H](O)[C@H](O)[C@H]1O)[C@H]1CC[C@]2(C)[C@@H]1[C@H](O)C[C@@H]1[C@@]3(C)CC[C@H](O)C(C)(C)[C@@H]3[C@@H](O[C@@H]3O[C@H](CO)[C@@H](O)[C@H](O)[C@H]3O)C[C@]12C [Rg1, ginsenoside Rg1]
- effect on glucose absorption (in words) (Caco2 cell monolayer): inhibitory effect
- Percentage (glucose transport, control = 100) (Caco2 cell monolayer; compound 0.01 μM): 51.88%
- glucose transportation (in words, FIG. 2) (Caco2 cell monolayer; compound 0.01 μM to 1 μM): clearly inhibited
- Transport rate (glucose) (Caco2 cell monolayer; compound 0.01 μM): 1.1317 ± 0.1299 nmol/min
- Percentage (glucose transport, control = 100) (Caco2 cell monolayer; compound 0.1 μM): 58.51%
- Transport rate (glucose) (Caco2 cell monolayer; compound 0.1 μM): 1.2763 ± 0.1907 nmol/min
- Percentage (glucose transport, control = 100) (Caco2 cell monolayer; compound 1 μM): 96.68%
- Transport rate (glucose) (Caco2 cell monolayer; compound 1 μM): 2.1089 ± 0.2097 nmol/min
- Percentage (arginine transport, control = 100) (Caco-2 cell monolayer [1]; compound 0.01 μM): 126.89%
- Transport rate (arginine) (Caco-2 cell monolayer [1]; compound 0.01 μM): 13.5583 ± 1.1940 nmol/min
- Percentage (arginine transport, control = 100) (Caco-2 cell monolayer [1]; compound 0.1 μM): 210.91%
- Transport rate (arginine) (Caco-2 cell monolayer [1]; compound 0.1 μM): 22.5370 ± 0.8912 nmol/min
- Percentage (arginine transport, control = 100) (Caco-2 cell monolayer [1]; compound 1 μM): 171.51%
- Transport rate (arginine) (Caco-2 cell monolayer [1]; compound 1 μM): 18.3265 ± 0.8965 nmol/min
- cytotoxicity to Caco2 cells (cell viability) (Caco2 cells): exhibited cytotoxicity
- * (arrow: regulatory effect on tryptophan transport) (Caco-2 cell monolayer [2]; compound 0.001 μM): ↑
- Percentage (tryptophan transport, control = 100) (Caco-2 cell monolayer [2]; compound 0.001 μM): 130.17%
- Transport rate (tryptophan) (Caco-2 cell monolayer [2]; compound 0.001 μM): 16.180 ± 2.8700 nmol/min
- tryptophan transport rate (in words) (Caco-2 cell monolayer [2]; compound 0.001 μM to 0.1 μM): increased
- * (arrow: regulatory effect on tryptophan transport) (Caco-2 cell monolayer [2]; compound 0.01 μM): ↑
- Percentage (tryptophan transport, control = 100) (Caco-2 cell monolayer [2]; compound 0.01 μM): 133.47%
- Transport rate (tryptophan) (Caco-2 cell monolayer [2]; compound 0.01 μM): 16.590 ± 1.4190 nmol/min
- * (arrow: regulatory effect on tryptophan transport) (Caco-2 cell monolayer [2]; compound 0.1 μM): ↑
- Percentage (tryptophan transport, control = 100) (Caco-2 cell monolayer [2]; compound 0.1 μM): 142.48%
- Transport rate (tryptophan) (Caco-2 cell monolayer [2]; compound 0.1 μM): 17.710 ± 0.5948 nmol/min
